Test results taken from paper PMC12458691 (Inorganic Chemistry, 2025).
Where two headings read alike, the source gives them in different places. Marks after values point to notes of the source that are not given here.

How the values were obtained:
[1] = Catalase activity by pressure monitoring of evolved O2; type: biochemical; details: 25°C, pH 7.5
Procedure: The quantification of the evolved oxygen is frequently used to evaluate the catalase activity. − In this work, the amount of gas evolved during the reaction of the Fe^2+–^ COOH PyNMe 3 complex with hydrogen peroxide was monitored by measuring the pressure changes over time using a previously calibrated Man on the Moon X104 gas evolution kit. For that purpose, 2.5 mL of an aqueous solution of the complex at concentrations of (0.5–2.7) × 10^–4 M buffered at pH 7.5 with TRIS (50 mM) was prepared inside a glovebox, placed in a closed reaction vessel, and purged with nitrogen. Once the pressure readings were stabilized, 0.2–1.2 mL of a 0.12 M aqueous solution of H2O2 (also prepared in TRIS 50 mM at pH 7.4) was added, and the pressure was then measured as a function of time. A blank experiment was conducted with a complex-free solution of a 50 mM TRIS solution with hydrogen peroxide at pH 7.4, where no O2 evolution was detected. The same result was obtained for blank experiments, including also the ligand but not the metal ion or the free metal ion (i.e., Fe^2+, Fe^3+, or Cu^2+) in the absence of the ligand (see Entries 8–12 in Table ). […] Nevertheless, the possible formation of small amounts of CO2, which would introduce a small error in the estimation of evolved O2, cannot be completely ruled out.

[2] = parameters: method as in footnotes c–f, numbers not given; details: Cu2+ complexes/salt/enzyme, literature data for comparison; ref footnotes c–f, numbers not given; cited from earlier work
[3] = McCord–Fridovich nitroblue tetrazolium (NBT) SOD activity assay; type: biochemical; details: for SOD activity of the Fe2+ complexes (in words): NBT method, under the conditions of this study; for increase in the SOD catalytic constant of the Cu2+ complex on functionalization of the pyridine: relative to Cu2+ complexes of HPyNH3 or HPyNMe3; for k cat (SOD catalytic constant): metal complexes, calculated from IC50 as kNBT[NBT]/IC50, pH 7.4, [NBT] = 59 μM
Source text: First, the SOD activity of the complexes was studied by means of the nitroblue tetrazolium (NBT) method, also known as McCord–Fridovich method. This is a widely used, indirect method based on the side production of superoxide anions by the xanthine oxidase enzyme and their capture by the NBT dye to give formazan. − A compound displaying SOD activity decreases the flow of superoxide radical anions and, thereby, the production of formazan (see the representation of the fitting of the data in Figures and S13–S16). Thus, by following the absorption band of formazan at 560 nm, the SOD activity of the studied mimetic can be quantified. Blank experiments were recorded with the ligands alone without observing any effect. The values of IC50, defined as the amount of the compound necessary for achieving 50% inhibition of NBT reduction to formazan by the superoxide anion, together with the catalytic constants (k cat), were obtained as indicated in the Experimental Section and are summarized in Table .
The SOD-like activity was determined by using the nitroblue tetrazolium (NBT) method, which despite its limitations is frequently used to estimate the activity of SOD mimetics. − The assays were carried out in a pH = 7.4 50 mM HEPES buffer at 298 K. The xanthine (2.2 × 10^–4 M) and xanthine oxidase (ca. 3 UN) system was used to generate a reproducible and constant flux of superoxide anions. […] Data in the absence of the complex were used as a reference. […] The percentage of inhibition of the NBT reduction to formazan was used as a measure of the SOD activity of the compounds. The concentration of the complex required to yield 50% inhibition of NBT reduction (IC50) was determined from a plot of percentage inhibition versus complex concentration. The IC50 data were calculated from the mean values of (at least) three independent measurements. The catalytic constant was calculated from the IC50 using the equation k cat = k NBT[NBT]/IC50 where k NBT = (5.94 ± 0.5) × 10^4 M^–1 s^–1. −

[4] = cited from earlier work
[5] = Stability constants and speciation of Cu2+ complexes by potentiometric measurements; type: physicochemical; details: for pCu: calculated for theoretical solutions; for log K, Cu+L⇄[CuL] (stability constant) / log K, [CuL]+H2O⇄[CuL(OH)]+H: 0.15 M NaClO4, 298.1 K
Procedure: (§1) Caution! Perchlorate salts are explosive and should be handled with care; such compounds should never be heated as solids. The potentiometric titrations were carried out at 298.1 ± 0.1 K using 0.15 M NaClO4 as the supporting electrolyte. The experimental procedure (buret, potentiometer, cell, stirrer, microcomputer, etc.) has been fully described elsewhere. The acquisition of raw potentiometric data was performed with the computer program PASAT. The reference electrode was a Ag/AgCl electrode in a saturated KCl solution. The glass electrode was calibrated as a hydrogen-ion concentration probe by titration of previously standardized amounts of HCl with CO2-free NaOH solutions, and the equivalent point was determined by Gran’s method, , which gives the standard potential, E̊, and the ionic product of water (pK w = 13.73(1)). The computer program […] was used to calculate the protonation and stability constants. The HYSS program was used to obtain the distribution diagrams. The pH range investigated by using this technique was 2.5–11.0, in accordance with the linear response range of glass electrodes. The solutions were extensively deaerated with an argon flow before the potentiometric runs. A moderate argon flow was maintained throughout the course of the titrations. The different titration curves for each system (at least two) were treated either as a single set or as separate curves without significant variations in the values of the stability constants. Finally, the sets of data were merged and treated simultaneously to give the final stability constants.

[6] = cited from earlier work; remark: listed apart in the source
[7] = Stability constants and speciation of Fe2+ complexes by potentiometric measurements; type: physicochemical; details: for log K, Fe+L⇄[FeL] (stability constant) / log K, [FeL]+H2O⇄[FeL(OH)]+H: 0.15 M NaClO4, 298.1 K; for pFe: calculated for theoretical solutions
Procedure: as §1

[8] = Protonation constants by potentiometric and UV–vis titrations; type: physicochemical; details: for three protonation constants, span from first to third: potentiometric titrations (third constant of COOMePyNMe3 by UV)
Procedure: as §1
The solvents used were of spectroscopic or equivalent grade. Water was twice distilled and passed through a Millipore apparatus. The pH values were measured with a Metrohm 713 pH meter, and adjustments of the hydrogen-ion concentration of the solutions were made with diluted HCl and NaOH solutions. UV–vis absorption spectra were recorded between pH 2 and 11 with an Agilent 8453 spectrometer. The resulting data from the titrations were used to calculate the third protonation constant of ^ COOMe PyNMe 3 . For this, the HypSpec program was employed, considering all of the absorbance intensities in the range of 250 and 350 nm.

[9] = parameters: method as in earlier work; details: Table S3, 0.15 M NaClO4, 298.1 K; ref 1 of the SI; cited from earlier work
[10] = parameters: method as in number not given; details: Mn2+ complexes of the ligands, recently reported; ref number not given; cited from earlier work
[11] = entry 10: no ligand, [Cu2+]0 2.7 × 10^–4 M as Cu(ClO4)2, [H2O2]0 4.3 × 10^–2 M
[12] = entry 8: no ligand, [Fe2+]0 2.14 × 10^–4 M as Fe(SO4), [H2O2]0 3.4 × 10^–2 M
[13] = entry 9: no ligand, 2.14 × 10^–4 M FeCl3, [H2O2]0 3.4 × 10^–2 M
[14] = 0.15 M NaClO4, 298.1 K, ref footnote c, number not printed
[15] = entry 12: ligand alone 2.14 × 10^–4, no metal ion, [H2O2]0 3.4 × 10^–2 M
[16] = 0.15 M NaClO4, 298.1 K, potentiometry
[17] = Table S2, 0.15 M NaClO4, 298.1 K, potentiometry, ref 1 of the SI
[18] = Table S3, 0.15 M NaClO4, 298.1 K, ref 1 of the SI

[Cu+2].[O-][Cl+3]([O-])([O-])[O-].[O-][Cl+3]([O-])([O-])[O-] [Cu(ClO4)2]
TON (moles of H2O2 decomposed by one mol of metal ions) [1, 11]: 0 | nO2(g) [1, 11]: 0 mol | k cat (SOD catalytic constant) [2]: 2.7 10^6 M^–1 s^–1

O=S(=O)([O-])[O-].[Fe+2] [Fe(SO4)]
TON (moles of H2O2 decomposed by one mol of metal ions) [1, 12]: 0 | nO2(g) [1, 12]: 0 mol

[Cl][Fe]([Cl])[Cl] [FeCl3]
TON (moles of H2O2 decomposed by one mol of metal ions) [1, 13]: 0 | nO2(g) [1, 13]: 0 mol

O=C(O)c1cc2nc(c1)CNCCNCCNC2 [^ COOH PyNH 3]
k cat (SOD catalytic constant) [2]: 9.7 10^6 M^–1 s^–1 | SOD activity of the Fe2+ complexes (in words) [3]: negligible SOD activity | increase in the SOD catalytic constant of the Cu2+ complex on functionalization of the pyridine [3]: 6- to 10 fold | log K, H2L^(2+x)++H^+⇄H3L^(3+x)+ (stepwise protonation constant) [4, 14]: 2.25(2) | log K, HL^(1+x)++H^+⇄H2L^(2+x)+ (stepwise protonation constant) [4, 14]: 7.90(1) | log K, L^x+H^+⇄HL^(1+x)+ (stepwise protonation constant) [4, 14]: 10.80(1) ^d | log β (∑log K, protonation) [4, 14]: 20.95 | pCu ([5]; pH 7.4, [L]=[M]=1 µM): 9.80 | pCu ([5]; pH 7.4, [L]=[M]=10 µM): 9.30 | log K, Cu+L⇄[CuL] (stability constant) [6, 14]: 17.62(2) ^c, ^d | log K, [CuL]+H2O⇄[CuL(OH)]+H [6, 14]: –9.07(2) ^c | log K, Cu+L⇄[CuL] (stability constant) ([6]; 0.15 M NaClO4, 298.1 K, ref footnote c, number not printed, listed as COOHPyNH3): 17.62

CN1CCN(C)Cc2cc(C(=O)O)cc(n2)CN(C)CC1 [^ COOH PyNMe 3]
log K, Fe+L⇄[FeL] (stability constant) [7]: 10.02(2) | log K, [FeL]+H2O⇄[FeL(OH)]+H [7]: –9.44(4) | pFe ([7]; pH 7.4, [L]=[M]=1 µM): 6.22 | pFe ([7]; pH 7.4, [L]=[M]=10 µM): 5.58 | free Fe2+ ([7]; pH 7.5, [COOHPyNMe3]=[Fe2+]=50 µM, 0.15 M NaClO4 (Figure S19)): 10.9% | free Fe2+ ([7]; pH 7.5, [COOHPyNMe3]=[Fe2+]=270 µM, 0.15 M NaClO4 (Figure S18)): 4.8% | TON (moles of H2O2 decomposed by one mol of metal ions) [1, 15]: 0 | nO2(g) [1, 15]: 0 mol | SOD activity of the Fe2+ complexes (in words) [3]: negligible SOD activity | k cat (SOD catalytic constant) [3]: 12.3 10^6 M^–1 s^–1 | increase in the SOD catalytic constant of the Cu2+ complex on functionalization of the pyridine [3]: 6- to 10 fold | log K, Cu+L⇄[CuL] (stability constant) [5]: 16.35(4) | log K, [CuL]+H2O⇄[CuL(OH)]+H [5]: –9.24(7) | log K, Cu+L⇄[CuL] (stability constant) ([5]; listed as COOHPyNMe3): 16.35 | pCu ([5]; pH 7.4, [L]=[M]=1 µM): 9.18 | pCu ([5]; pH 7.4, [L]=[M]=10 µM): 8.68 | log β (∑log K, protonation) ([8]; 0.15 M NaClO4, 298.1 K): 21.53 | log K, H2L^(2+x)++H^+⇄H3L^(3+x)+ (stepwise protonation constant) [8, 16]: 2.90(4) | log K, HL^(1+x)++H^+⇄H2L^(2+x)+ (stepwise protonation constant) [8, 16]: 7.73(3) | log K, L^x+H^+⇄HL^(1+x)+ (stepwise protonation constant) [8, 16]: 10.90(2) | three protonation constants, span from first to third [8]: 10.90 to 2.90 logarithmic units

COC(=O)c1cc2nc(c1)CN(C)CCN(C)CCN(C)C2 [^ COOMe PyNMe 3]
log K, Fe+L⇄[FeL] (stability constant) [7]: 9.46(2) | log K, [FeL]+H2O⇄[FeL(OH)]+H [7]: –8.18(5) | pFe ([7]; pH 7.4, [L]=[M]=1 µM): 6.27 | pFe ([7]; pH 7.4, [L]=[M]=10 µM): 5.66 | SOD activity of the Fe2+ complexes (in words) [3]: negligible SOD activity | k cat (SOD catalytic constant) [3]: 40.3 10^6 M^–1 s^–1 | increase in the SOD catalytic constant of the Cu2+ complex on functionalization of the pyridine [3]: 34 fold | log K, Cu+L⇄[CuL] (stability constant) [5]: 16.84(3) | log K, [CuL]+H2O⇄[CuL(OH)]+H [5]: –8.26(4) | pCu ([5]; pH 7.4, [L]=[M]=1 µM): 9.79 | pCu ([5]; pH 7.4, [L]=[M]=10 µM): 9.29 | log K, H2L^(2+x)++H^+⇄H3L^(3+x)+ (stepwise protonation constant) ([8]; 0.15 M NaClO4, 298.1 K, obtained by UV–vis spectroscopic titration): 2.48(1) ^f | log K, HL^(1+x)++H^+⇄H2L^(2+x)+ (stepwise protonation constant) [8, 16]: 7.03(1) | log K, L^x+H^+⇄HL^(1+x)+ (stepwise protonation constant) [8, 16]: 10.57(2) | three protonation constants, span from first to third [8]: 10.57 to 2.48 logarithmic units

CN1CCN(C)Cc2cccc(n2)CN(C)CC1 [^ H PyNMe 3]
log K, Fe2+ + L ⇄ [FeL]2+ (stability constant) [9]: 9.72(2) | log K, [FeL(OH)]+ + H2O ⇄ [FeL(OH)2] + H+ [9]: -10.58(5) | log K, [FeL]2+ + H2O ⇄ [FeL(OH)] + H+ [9]: -9.08(4) | k cat (SOD catalytic constant) [2]: 1.2 10^6 M^–1 s^–1 | log K, H + HL ⇄ H2L (stepwise protonation constant) [4, 17]: 7.37(1) | log K, H + L ⇄ HL (stepwise protonation constant) [4, 17]: 10.88(1) | log β (∑log K, protonation) ([4]; Table S2, 0.15 M NaClO4, 298.1 K, ref 1 of the SI): 18.25 | log K, [CuL(OH)]+ + H2O ⇄ [CuL(OH)2] + H+ [6, 18]: -11.31(8) | log K, [CuL]2+ + H2O ⇄ [CuL(OH)]+ + H+ [6, 18]: -8.53(4)

COc1cc2nc(c1)CNCCNCCNC2 [^ MeO PyNH 3]
TON of catalase activity of the Mn2+ complexes [10]: 25–37

Oc1cc2nc(c1)CNCCNCCNC2 [^ OH PyNH 3]
TON of catalase activity of the Mn2+ complexes [10]: 25–37
